Reference: patent publication US6403830B2, “Amidino compound and salts thereof useful as nitric oxide synthase inhibitors” (Pharmacia Corporation, priority 2000, dated 2002)
Where a name gives a salt, the structure may show the parent alone.

What was measured:
[1] = molecular target: T1, Human inducible NOS (hiNOS) (Homo sapiens, UniProt P35228); assay: Citrulline assay for nitric oxide synthase, hiNOS; format: biochemical; details: recombinant enzyme, 30 μM L-arginine; averages across all experiments and all lots
T1 construct: made in house; host or cells: Sf9 insect cells (baculovirus vector)
From the text: (§1) Nitric oxide synthase (NOS) activity can be measured by monitoring the conversion of L-[2,3-^3H]-arginine to L-[2,3-^3H]-citrulline (Bredt and Snyder, Proc. Natl. Acad. Sci. U.S.A., 87, 682-685, 1990 and Moore et al, J. Med. Chem. 39, 669-672, 1996). Human inducible NOS (hiNOS), human endothelial constitutive NOS (hecNOS) and human neuronal constitutive NOS (hncNOS) are each cloned from RNA extracted from human tissue. The cDNA for human inducible NOS (hiNOS) is isolated from a λcDNA library made from RNA extracted from a colon sample from a patient with ulcerative colitis. The cDNA for human endothelial constitutive NOS (hecNOS) is isolated from a λcDNA library made from RNA extracted from human umbilical vein endothelial cells (HUVEC) and the cDNA for human neuronal constitutive NOS (hncNOS) is isolated from a λcDNA library made from RNA extracted from human cerebellum obtained from a cadaver. The recombinant enzymes are expressed in Sf9 insect cells using a baculovirus vector (Rodi et al, in The Biology of Nitric Oxide, Pt. 4: Enzymology, Biochemistry and Immunology: Moncada, S., Feelisch, M., Busse, R., Higgs, E., Eds.; Portland Press Ltd.: London, 1995; pp 447-450). Enzyme activity is isolated from soluble cell extracts and partially purified by DEAE-Sepharose chromatography. To measure NOS activity, 10 μL of enzyme is added to 40 μL of 50 mM Tris (pH 7.6) in the presence or absence of test compounds and the reaction initiated by the addition of 50 μL of a reaction mixture containing 50 mM Tris (pH 7.6), 2.0 mg/mL bovine serum albumin, 2.0 mM DTT, 4.0 mM CaCl2, 20 μM FAD, 100 μM tetrahydrobiopterin, 0.4 mM NADPH and 60 μM L-arginine containing 0.9 μCi of L-[2,3-^3H]-arginine. The final concentration of L-arginine in the assay is 30 μM. For hecNOS or hncNOS, calmodulin is included at a final concentration of 40-100 nM. Following incubation at 37° C. for 15 minutes, the reaction is terminated by addition of 400 μL of a suspension (1 part resin, 3 parts buffer) of Dowex 5OW X-8 cation exchange resin in a stop buffer containing 10 mM EGTA, 100 mM HEPES, pH 5.5 and 1 mM L-citrulline. After mixing the resin is allowed to settle and L-[2,3-^3H]-Citrulline formation is determined by counting aliquots of the supernatant with a liquid scintillation counter. Results are reported in Table 1 as the IC50 values of compounds for hiNOS, hecNOS and hncNOS.

[2] = molecular target: T2, human endothelial constitutive NOS (hecNOS) (Homo sapiens, UniProt P29474); assay: Citrulline assay for nitric oxide synthase, hecNOS; format: biochemical; details: recombinant enzyme, 30 μM L-arginine, calmodulin; averages across all experiments and all lots
T2 construct: made in house; host or cells: Sf9 insect cells (baculovirus vector)
From the text: as §1

[3] = molecular target: T3, human neuronal constitutive NOS (hncNOS) (Homo sapiens, UniProt P29475); assay: Citrulline assay for nitric oxide synthase, hncNOS; format: biochemical; details: recombinant enzyme, 30 μM L-arginine, calmodulin; averages across all experiments and all lots
T3 construct: made in house; host or cells: Sf9 insect cells (baculovirus vector)
From the text: as §1

[4] = system: nitrite production in human cartilage explants induced with recombinant human IL-1β; assay: Human Cartilage Explant Assay; format: cell-based; details: inhibition of nitrite production, IL-1β-stimulated explants, averages across all experiments and all lots

T2 sequence (P29474 2-1203): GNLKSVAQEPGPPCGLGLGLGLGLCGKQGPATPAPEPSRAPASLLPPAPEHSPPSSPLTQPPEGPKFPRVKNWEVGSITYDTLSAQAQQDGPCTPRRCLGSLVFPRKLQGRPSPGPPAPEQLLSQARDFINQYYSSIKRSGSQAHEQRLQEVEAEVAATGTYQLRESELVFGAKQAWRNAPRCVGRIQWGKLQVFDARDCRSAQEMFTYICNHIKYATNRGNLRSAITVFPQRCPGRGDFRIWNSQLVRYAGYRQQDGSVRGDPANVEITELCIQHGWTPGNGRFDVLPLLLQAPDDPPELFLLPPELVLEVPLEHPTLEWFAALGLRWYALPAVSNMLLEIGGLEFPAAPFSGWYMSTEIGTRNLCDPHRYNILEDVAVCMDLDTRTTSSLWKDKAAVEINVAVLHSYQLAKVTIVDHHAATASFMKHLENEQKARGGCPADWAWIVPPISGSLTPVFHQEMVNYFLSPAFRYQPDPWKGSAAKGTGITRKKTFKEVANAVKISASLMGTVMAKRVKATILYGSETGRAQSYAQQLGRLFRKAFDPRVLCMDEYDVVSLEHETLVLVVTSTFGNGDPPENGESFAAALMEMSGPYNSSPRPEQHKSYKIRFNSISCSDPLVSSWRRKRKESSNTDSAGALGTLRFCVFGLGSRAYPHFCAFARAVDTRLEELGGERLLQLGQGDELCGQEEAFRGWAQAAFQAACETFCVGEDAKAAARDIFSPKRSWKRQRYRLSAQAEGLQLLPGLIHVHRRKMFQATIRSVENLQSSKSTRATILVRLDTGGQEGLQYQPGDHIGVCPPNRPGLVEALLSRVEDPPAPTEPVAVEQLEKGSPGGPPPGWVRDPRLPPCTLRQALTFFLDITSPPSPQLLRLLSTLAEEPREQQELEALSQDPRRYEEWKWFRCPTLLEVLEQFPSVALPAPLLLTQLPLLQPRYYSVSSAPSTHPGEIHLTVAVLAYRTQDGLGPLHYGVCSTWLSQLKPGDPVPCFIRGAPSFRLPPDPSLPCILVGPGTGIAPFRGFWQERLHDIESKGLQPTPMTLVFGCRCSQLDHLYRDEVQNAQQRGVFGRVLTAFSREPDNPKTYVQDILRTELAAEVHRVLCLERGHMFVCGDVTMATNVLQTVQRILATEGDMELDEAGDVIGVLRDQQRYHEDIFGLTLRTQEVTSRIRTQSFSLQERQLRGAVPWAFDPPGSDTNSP
T3 sequence (P29475 whole entry): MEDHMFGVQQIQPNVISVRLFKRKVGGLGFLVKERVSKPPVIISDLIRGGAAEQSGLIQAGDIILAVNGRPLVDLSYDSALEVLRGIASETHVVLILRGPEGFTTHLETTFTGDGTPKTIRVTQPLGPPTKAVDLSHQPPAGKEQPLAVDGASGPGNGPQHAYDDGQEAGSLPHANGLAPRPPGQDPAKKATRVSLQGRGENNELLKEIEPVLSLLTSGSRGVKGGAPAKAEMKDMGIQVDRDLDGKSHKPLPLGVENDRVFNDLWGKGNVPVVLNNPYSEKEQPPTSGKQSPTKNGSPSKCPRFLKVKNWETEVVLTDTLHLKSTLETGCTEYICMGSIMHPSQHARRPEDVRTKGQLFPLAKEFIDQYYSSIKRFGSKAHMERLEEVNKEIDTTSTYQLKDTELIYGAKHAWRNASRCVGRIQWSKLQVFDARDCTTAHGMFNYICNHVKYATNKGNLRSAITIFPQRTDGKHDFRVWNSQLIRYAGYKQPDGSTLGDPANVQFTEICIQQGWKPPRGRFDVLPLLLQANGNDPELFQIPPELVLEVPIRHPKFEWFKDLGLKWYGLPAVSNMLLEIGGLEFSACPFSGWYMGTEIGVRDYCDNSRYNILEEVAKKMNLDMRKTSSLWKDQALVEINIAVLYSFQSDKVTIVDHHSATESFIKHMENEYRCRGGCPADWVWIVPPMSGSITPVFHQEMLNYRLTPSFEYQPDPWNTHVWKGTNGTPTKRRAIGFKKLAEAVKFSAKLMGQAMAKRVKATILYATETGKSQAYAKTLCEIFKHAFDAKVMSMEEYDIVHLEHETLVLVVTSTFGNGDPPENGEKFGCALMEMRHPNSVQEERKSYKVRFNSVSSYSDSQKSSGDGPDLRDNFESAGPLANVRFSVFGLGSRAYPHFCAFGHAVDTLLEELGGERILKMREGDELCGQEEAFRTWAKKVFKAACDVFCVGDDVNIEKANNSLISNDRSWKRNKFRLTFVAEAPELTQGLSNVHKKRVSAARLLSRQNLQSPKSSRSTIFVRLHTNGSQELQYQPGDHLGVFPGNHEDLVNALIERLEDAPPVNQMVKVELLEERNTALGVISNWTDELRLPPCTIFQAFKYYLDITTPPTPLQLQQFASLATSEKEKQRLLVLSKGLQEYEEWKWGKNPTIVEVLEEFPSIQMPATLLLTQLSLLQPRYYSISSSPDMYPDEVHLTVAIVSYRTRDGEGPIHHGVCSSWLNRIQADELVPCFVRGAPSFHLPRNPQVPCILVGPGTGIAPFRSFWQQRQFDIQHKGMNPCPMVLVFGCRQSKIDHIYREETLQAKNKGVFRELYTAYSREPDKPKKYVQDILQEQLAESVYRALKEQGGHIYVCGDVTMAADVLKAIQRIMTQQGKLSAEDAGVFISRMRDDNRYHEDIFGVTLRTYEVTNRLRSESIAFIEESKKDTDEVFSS
T1 sequence (P35228 whole entry): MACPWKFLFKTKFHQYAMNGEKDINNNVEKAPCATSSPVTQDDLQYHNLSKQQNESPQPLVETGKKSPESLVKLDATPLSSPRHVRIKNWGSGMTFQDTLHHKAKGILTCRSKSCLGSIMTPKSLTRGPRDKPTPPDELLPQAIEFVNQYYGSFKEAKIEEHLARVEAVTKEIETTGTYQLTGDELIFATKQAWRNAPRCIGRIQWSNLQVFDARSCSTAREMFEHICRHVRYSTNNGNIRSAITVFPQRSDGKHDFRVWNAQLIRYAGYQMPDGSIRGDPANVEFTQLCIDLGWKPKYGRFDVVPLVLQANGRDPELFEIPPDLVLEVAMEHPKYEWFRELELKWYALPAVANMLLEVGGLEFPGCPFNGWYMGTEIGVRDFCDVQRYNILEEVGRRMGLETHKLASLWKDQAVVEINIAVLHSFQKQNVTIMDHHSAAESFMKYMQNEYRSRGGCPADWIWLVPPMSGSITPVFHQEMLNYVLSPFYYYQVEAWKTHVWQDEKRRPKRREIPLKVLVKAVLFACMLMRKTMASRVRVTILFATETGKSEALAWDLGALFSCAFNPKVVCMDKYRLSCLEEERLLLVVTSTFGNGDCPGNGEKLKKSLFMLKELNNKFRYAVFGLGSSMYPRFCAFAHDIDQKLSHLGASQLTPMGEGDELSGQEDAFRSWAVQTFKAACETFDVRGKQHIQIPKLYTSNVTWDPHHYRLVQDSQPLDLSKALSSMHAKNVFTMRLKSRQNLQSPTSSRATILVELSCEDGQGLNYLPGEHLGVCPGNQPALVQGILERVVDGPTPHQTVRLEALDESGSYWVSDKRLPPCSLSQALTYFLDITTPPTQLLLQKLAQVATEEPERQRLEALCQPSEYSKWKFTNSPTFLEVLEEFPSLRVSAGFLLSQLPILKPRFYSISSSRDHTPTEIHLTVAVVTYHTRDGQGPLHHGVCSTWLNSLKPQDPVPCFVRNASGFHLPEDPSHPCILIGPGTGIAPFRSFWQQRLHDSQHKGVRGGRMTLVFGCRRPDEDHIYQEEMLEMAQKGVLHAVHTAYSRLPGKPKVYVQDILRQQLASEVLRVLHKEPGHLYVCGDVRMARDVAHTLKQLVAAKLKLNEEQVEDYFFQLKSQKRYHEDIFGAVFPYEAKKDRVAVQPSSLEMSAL

IC50 [1] | IC50 [2] | IC50 [3] | SMILES | IC50 [4]
74 µM | 266 µM | 86 µM | CC(=N)NC[C@@H](C)SC[C@](C)(N)C(=O)O [Example 3, S-[(1R)-2-[(1-Iminoethyl)amino]-1-methylethyl]-2-methyl-L-cysteine, dihydrochloride] | 
12 µM | 1080 µM | 220 µM | CC(=N)NCCS(=O)(=O)C[C@](C)(N)C(=O)O [Example 19, (2R)-2-Amino-3[[2-[(1-iminoethyl)amino]ethyl]sulfonyl]-2-methylpropanoic acid dihydrochloride] | 
0.9 µM | 26 µM | 6 µM | CC(=N)NCCSC[C@](N)(C(=O)O)C(C)C [Example 11, 2-[[[[2-(1-Iminoethyl)amino]ethyl]thio]methyl]-D-valine, dihydrochloride] | 
12 µM | > 100 µM | 181 µM | CC(=N)NCC[S+]([O-])C[C@](C)(N)C(=O)O (mixture of isomers) [Example 18, (2R)-2-Amino-3[[2-[(1-iminoethyl)amino]ethyl]sulfmyl]-2-methylpropanoic acid, dihydrochloride] | 
197 µM | 1100 µM | 539 µM | CC(=N)NC[C@H](C)SC[C@](C)(N)C(=O)O [Example 4, S-[(1S)-2-[(1-Iminoethyl)aminol-1-methylethyl]-2-methyl-L-cysteine, dihydrochloride] | 
3.4 µM | 78 µM | 17 µM | CC[C@](N)(CSCCNC(C)=N)C(=O)O [Example 7, S-[2-[(1-Iminoethyl)amino]ethyl]-2-ethyl-L-cysteine, dihydrochloride] | 

SMILES | IC50 [1] | IC50 [2] | IC50 [3] | IC50 [4]
CC(=N)NCCSCC(C)(N)C(=O)O (stereo not drawn) [Example 16, S-[2-(1-Iminoethylamino)ethyl]-2-methyl-(D/L)-cysteine, bistrifluoroacetate] | 7.2 µM | > 100 µM | 36 µM | 0.7 µM
CC(=N)NCCSC[C@](C)(N)C(=O)O [Example 1, S-[2-[(1-Iminoethyl)amino]ethyl]-2-methyl-L-cysteine, dihydrochloride] | 3.1 µM | 77 µM | 15 µM | 0.7 µM
COC[C@](N)(CSCCNC(C)=N)C(=O)O [Example 2, 2-[[[2-[(1-Iminoethyl)amino]ethyl]thio]methyl]-O-methyl-D-serine, dihydrochloride] | 4.4 µM | 302 µM | 58 µM | 
